Data: ChEMBL document CHEMBL1147122, “Eurysterols A and B, cytotoxic and antifungal steroidal sulfates from a marine sponge of the genus Euryspongia” (J Nat Prod, 2007)

Tests used:
HCT-116 = test: Cytotoxicity against human HCT116 cells after 72 hrs; type: cell-based; conditions: HCT-116, 72 h
Candida albicans [1] = test: Antifungal activity against amphotericin-B-resistant Candida albicans ATCC 90873 after 14 to 16 hrs; type: functional
Candida albicans [2] = test: Antifungal activity against wild type-Candida albicans ATCC 32354 after 14 to 16 hrs; type: functional

SMILES	IC50 (HCT-116)	MIC (Candida albicans [1])	MIC (Candida albicans [2])
CC(C)CCC[C@@H](C)[C@H]1CC[C@@H]2[C@]1(C)CC[C@H]1[C@@]23C[C@@H](O)[C@@]2(O)C[C@@H](OS(=O)(=O)[O-])CC[C@]12CO3.[Na+] [EURYSTEROL A]	2.9 µg/mL	15.6 µg/mL	15.6 µg/mL
CC(C)C/C=C/[C@@H](C)[C@H]1CC[C@@H]2[C@]1(C)CC[C@H]1[C@@]23C[C@@H](O)[C@@]2(O)C[C@@H](OS(=O)(=O)[O-])CC[C@]12CO3.[Na+] [EURYSTEROL B]	14.3 µg/mL	62.5 µg/mL	62.5 µg/mL
